In article PMC6348444, “New Water-Soluble Copper(II) Complexes with Morpholine–Thiosemicarbazone Hybrids: Insights into the Anticancer and Antibacterial Mode of Action” (Journal of Medicinal Chemistry, 2018):
Where two headings read alike, the source gives them in different places. Marks after values point to notes of the source that are not given here.

Experiments:
A2780 cells [1] = assay: MTT cytotoxicity assay, A2780; assay type: cell-based, human
A2780cisR cells = assay: MTT cytotoxicity assay, A2780cisR; assay type: cell-based, human; settings: for RF (resistance factor): IC50(A2780cisR)/IC50(A2780); for IC50: MTT assay, 72 h exposure, cisplatin-resistant A2780cisR, read-out: IC50 A2780cis
HEK293 cells = assay: MTT cytotoxicity assay, HEK293; assay type: cell-based, human; settings: for SF (selectivity factor): IC50(HEK293)/IC50(A2780); for IC50: MTT assay, 72 h exposure, noncancerous cells
[2] = n-octanol/water distribution coefficient, shake-flask; assay type: physicochemical; settings: n-octanol/buffered aqueous solution, pH 7.40, UV-vis
Experimental: The titrations were carried out under a nitrogen atmosphere.

A2780 cells [3] = assay: Cellular accumulation of Cu by ICP-MS; assay type: cell-based, human; settings: 24 h exposure
Text: The ability of anticancer drugs to penetrate biological membranes, tissues, and barriers underlies their biological, pharmacokinetic, and metabolic properties. These properties can be predicted by calculating physicochemical characteristics of drug candidates using molecular descriptors.[30] […] The results are shown in Table S7 in the Supporting Information. On the basis of the calculated physicochemical parameters, we determined if novel compounds belonged to the drug-like chemical space, which is commonly defined by the well-known Lipinski rule, or to the known drug space (KDS), which includes all small compounds in medical use.[31] […] Following the calculations, we determined the lipophilicity of all compounds experimentally (log D7.4, Tables 1 and 2). It is known that cancer cells accumulate hydrophilic compounds to a smaller extent relative to hydrophobic compounds, thereby affecting their activity. […] As expected, proligands were more lipophilic than the corresponding Cu(II) species, which are positively charged at physiological pH (Figure 3b). […] The lipophilicity of 2–5 increased in the following order 4 < 2 < 3 < 5, and correlated well with their cytotoxicity in cancer cells, with the exception of 3. Subsequently, we determined the total cellular accumulation of Cu in A2780 cells by ICP–MS upon 24 h exposure to 1–6 in comparison with CuCl2 (Table 2). […] The accumulation increased in the order 6 < 1 < 3 < 4 < 2 < 5.
Cellular accumulation of 1–6 was determined in A2780 cells. Cells were seeded into Cellstar 6-well plates (Greiner Bio-one) at a density of 60 × 10^4 cells/well (2 mL per well). After the cells were allowed to resume exponential growth for 24 h, they were exposed to 1–6 at 1 μM for 24 h at 37 °C. The cells were washed twice with 1 mL of PBS and lysed with RIPA lysis buffer for 5–10 min at 4 °C. The cell lysates were scraped from the wells and transferred to separate 1.5 mL microtubes. The supernatant was then collected after centrifugation (13 000 rpm, 4 °C for 15 min) and total protein content of each sample was quantified via Bradford’s assay. Cell lysates were transferred to 2 mL glass vials and then digested with ultrapure 65% HNO3 at 100 °C for 24 h. The resulting solution was diluted to 1 mL (2–4% v/v HNO3) with ultrapure Milli-Q water. Cu content of each sample was quantified by ICP–MS. In was used as an internal standard. Cu and In were measured at m/z 64 and m/z 115, respectively. Metal standards for calibration curve (0, 0.5, 1, 2, 5, 10, 20, and 40 ppb) were freshly prepared before each measurement. All readings were made in triplicates in He mode. For temperature-dependent cellular accumulation experiments, A2780 cells were seeded into 35 n 10 mm tissue culture plates at a density of 60 0 10^4 cells/plate. After the cells were allowed to resume exponential growth for 24 h, they were exposed to 2 at 3 μM for 10, 30, 60, and 120 min at 37 and 4 °C. The subsequent analysis was performed as described above. For energy-dependent experiments, A2780 cells were seeded into 35 5 10 mm tissue culture plates at a density of 1 0 10^6 cells/plate. After the cells were allowed to resume exponential growth for 24 h, they were preincubated with oligomycin (5 μM) for 1 or 4 h or with cycloheximide (100 μM) for 4 h and further co-incubated with 3 μM of 2 at 37 °C. To induce total starvation, after the cells were allowed to resume exponential growth for 24 h, RPMI media was replaced with HBSS, and cells were preincubated in HBSS for 1 h and further incubated with 3 μM of 2 for 1 h at 37 °C. The subsequent analysis was performed as described above.

[4] = test system: Staphylococcus aureus CECT 86 (ATCC 12600); assay: MIC microdilution, S. aureus; assay type: cell-based; settings: planktonic cells; for S. aureus MIC50: growth inhibited at 50%; for S. aureus MIC100: lowest concentration completely inhibiting growth
Experimental: (§1) Wild-type P. aeruginosa PAO1 strain CECT 4122 (ATCC 15692) and S. aureus CECT 86 (ATCC 12600) were obtained from the Spanish Type Culture Collection (CECT). All strains were routinely cultivated in TSB medium (Sharlab, Spain) at 37 °C. MIC assays were determined by the microdilution method using TSB broth following the method described by the Clinical and Laboratory standards Institute.[94] In brief, compounds were diluted in a 96-well microtiter plate (tissue culture-treated polystyrene; […]

[5] = test system: Pseudomonas aeruginosa PAO1 CECT 4122 (ATCC 15692); assay: MIC microdilution, P. aeruginosa; assay type: cell-based; settings: planktonic cells; for P. aeruginosa MIC50: growth inhibited at 50%; for P. aeruginosa MIC100: lowest concentration completely inhibiting growth
Experimental: as §1

Solubility in water = assay type: physicochemical; settings: sterile water stock solutions
Experimental: Human ovarian carcinoma cells A2780 and A2780cisR and human embryonic kidney HEK293 were obtained from ATCC. A2780 and A2780cisR cells were cultured in RPMI 1640 medium containing 10% FBS. HEK293 were cultured in DMEM medium containing 10% FBS. All cells were grown in tissue culture 25 cm^2 flasks (BD Biosciences, Singapore) at 37 °C in a humidified atmosphere of 95% air and 5% CO2. All drug stock solutions were prepared in sterile water. The amount of Cu was determined by ICP–OES.

[6] = Cyclic voltammetry, redox potentials; assay type: physicochemical; settings: first reduction step; for E1/2 Red1 (DMSO) vs NHE / E1/2 Red1 (MeOH) vs NHE: vs NHE (in brackets)
Experimental: To assess the redox properties of 1-6, detailed electrochemical and spectroscopic studies in various solvents were performed using cyclic voltammetry as well as EPR-spectroelectrochemistry. Additionally, the UV-vis spectra of 1-5 were measured (Figure S8). […] The second reduction step occurred at -1.8 V versus Fc^+/Fc (-1.16 V vs NHE) and was less reversible, indicating a ligand-based reduction. […] In aqueous solutions, the reduction potentials shifted to the less negative values, and reduction was less reversible as shown for 2 in Figure S10. […] Cyclic voltammetric experiments were performed as described previously.[46] The cyclic voltammograms were measured in the cathodic region in different solvents (DMSO, methanol, DMSO/H2O). The analytical purity grade LiClO4 (Sigma-Aldrich) and distilled and deionized water were used for preparation of 1 mM aqueous solutions of the investigated complexes 1-6. EPR spectra were recorded with the EMX plus. In situ UV-vis-NIR spectroelectrochemical measurements were performed on a spectrometer (Avantes, Model AvaSpec-2048x14-USB2 in the spectroelectrochemical cell kit ([…]3)) with the Pt-microstructured honeycomb working electrode, purchased from Pine Research Instrumentation. The cell was positioned in the CUV-UV Cuvette Holder (Ocean Optics) connected to the diode-array UV-vis-NIR spectrometer by optical fibers. UV-vis-NIR spectra were processed using the AvaSoft 7.7 software package. Halogen and deuterium lamps were used as light sources (Avantes, Model AvaLight-DH-S-BAL). The in situ EPR spectroelectrochemical experiments were carried out under an argon atmosphere in the EPR flat cell equipped with a large platinum mesh working electrode. The freshly prepared solutions were carefully purged with argon and the electrolytic cell was polarized in the galvanostatic mode directly in the cylindrical EPR cavity TM-110 (ER 4103 TM), and the EPR spectra were measured in situ.

mouse R2 RNR protein = target: T1, mouse R2 RNR protein (Mus musculus, UniProt P11157); design: method as in PMID 21955844; settings: mouse R2, after 5 min, same experimental conditions; cited from earlier work
T1 construct: made in house; host or cells: Escherichia coli
T1 sequence (P11157 1-390): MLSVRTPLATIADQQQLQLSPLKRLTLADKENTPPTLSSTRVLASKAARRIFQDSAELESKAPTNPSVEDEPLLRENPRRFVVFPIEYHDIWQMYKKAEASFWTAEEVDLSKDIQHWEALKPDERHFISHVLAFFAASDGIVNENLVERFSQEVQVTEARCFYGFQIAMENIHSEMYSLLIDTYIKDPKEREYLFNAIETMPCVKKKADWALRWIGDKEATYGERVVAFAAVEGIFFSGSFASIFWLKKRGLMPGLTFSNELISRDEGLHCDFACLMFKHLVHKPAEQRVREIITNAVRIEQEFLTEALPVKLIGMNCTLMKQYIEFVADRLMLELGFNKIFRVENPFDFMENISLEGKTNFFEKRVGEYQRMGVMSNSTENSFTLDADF

A2780 cells [7] = assay: Annexin V/PI apoptosis assay; assay type: cell-based, human; settings: A2780, concentration corresponding to Cu content in 2 at 2IC50
Text: To elucidate if observed cytotoxicity of new compounds described in this study was a result of apoptosis induction, we conducted Annexin V/PI apoptosis assay. In brief, fluorochrome-labeled Annexin V reagent is used for detection of membrane phosphatidylserine (PS), which translocates to the cellular surface from the inner side of plasma membrane in the event of early apoptosis. Simultaneously, PI is used for detection of later stages of apoptosis or necrosis, which are characterized by loss of membrane integrity and accumulation of PI inside the cells. […] Results are illustrated in Figure 9. Upon incubation of A2780 cells with increasing concentrations of HL^2 and 2, the dose-dependent increase of apoptotic cells was observed.
A2780 cells were seeded into Cellstar 12-well plates (Greiner Bio-One) at a density of 20 × 10^4 cells/well (1 mL per well). The cells were allowed to resume exponential growth for 24 h and subsequently they were exposed to HL^2 and 2 at different concentrations for 24 h. After the supernatant solution was collected in 1.5 mL microtubes, the cells were washed with 100 μL of trypsin, which was combined with the supernatant. Subsequently, cells were trypsinized with 200 μL of trypsin for 5 min at 37 °C, 5% CO2, washed with 200 μL of PBS, and combined with the supernatant. The cells were centrifuged at 2.5 × 10^3 rpm for 5 min and the pellets were washed once with PBS and resuspended in 500 μL of Annexin V binding buffer and stained with Annexin V-FITC and PI reagents. The fluorescence was immediately analyzed by flow cytometry. The resulting dot blots were acquired from 10 000 events and quantified using Flowjo software (Flowjo LLC, Ashland, OR, USA).

Row | Compound | IC50 (A2780 cells [1]; 72 h exposure) [nM] | RF (resistance factor) (A2780cisR cells) | IC50 (A2780cisR cells) [nM] | SF (selectivity factor) (HEK293 cells) | IC50 (HEK293 cells) [nM] | log D7.4 [2] | cellular accumulation A2780 (A2780 cells [3]; 1 μM) [nmol Cu/mg protein] | S. aureus MIC50 [4] [µg/mL] | S. aureus MIC100 [4] [µg/mL] | P. aeruginosa MIC50 [5] | P. aeruginosa MIC100 [5] | solubility in water (Solubility in water) [µM] | E1/2 Red1 (DMSO) vs Fc+/Fc [6] | E1/2 Red1 (DMSO) vs NHE [6] | E1/2 Red1 (MeOH) vs Fc+/Fc [6] | E1/2 Red1 (MeOH) vs NHE [6] | also measured
1 | NC(=NN=Cc1ccc(CN2CCOCC2)cn1)[S][Cu][Cl] [complex 1, [Cu(L^1)Cl]] | 2200 ± 100 | 5.9 | 13000 ± 4000 | 7.3 | 16000 ± 2000 | –0.81 ± 0.04 | 0.63 ± 0.09 | 100 | >500 | NA (NA denotes no antibacterial activity detected (>500 μg/mL)) | NA (NA denotes no antibacterial activity detected (>500 μg/mL)) | ≤ 2000 | –0.81 V | –0.17 V | –0.57 V | +0.07 V | 
2 | [Cl][Cu][S]C(=NN=Cc1ccc(CN2CCOCC2)cn1)N1CCCC1 [complex 3, [Cu(L^3)Cl]] | 260 ± 20 | 2.3 | 600 ± 50 | 3.0 | 780 ± 200 | +0.86 ± 0.02 | 2.2 ± 0.6 | 3 | 10 | 100 µg/mL | 400 µg/mL | 300 | –0.80 V | –0.16 V | –0.49 V | +0.15 V | 
3 | NC(=S)N/N=C/c1ncccc1N [triapine, 3-amino-2-pyridinecarboxaldehyde TSC, reference compound] |  |  |  | 0.6 |  |  |  |  |  |  |  |  |  |  |  |  | IC50 (A2780 cells [1]; Homo sapiens, A2780, 72 h exposure): 670 ± 220 nM; IC50 (A2780cisR cells; Homo sapiens): 1100 ± 100 nM; IC50 (HEK293 cells; Homo sapiens, HEK293): 390 ± 50 nM; tyrosyl radical loss (mouse R2 RNR protein): 100%
4 | [Cl][Cu][Cl] [CuCl2, reference compound] | 83000 ± 12000 | 1.0 | 82000 ± 3000 | 2.3 | 187000 ± 37000 |  |  |  |  |  |  |  |  |  |  |  | cellular accumulation A2780 (A2780 cells [3]; 2.5 μM): 0.17 ± 0.05 ^f nmol Cu/mg protein; induction of apoptosis (A2780 cells [7]): no induction of apoptosis was detected
